Experimental data as given in patent publication US20210114983A1, “Cathepsin C inhibitors” (National Institute of Biological Sciences, Beijing, priority 2018, published 2021).
pIC50: −log10 of the molar value.

Experiments:
[1] = test system: acute pancreatitis; assay: Caerulein-induced acute pancreatitis; assay type: in vivo, C57BL/6 mice; conditions: orally twice daily at 20 mg/kg for 6 days
Experimental: Induction of Pancreatitis. The acute pancreatitis was induced by hourly intraperitoneal injections of caerulein (50 μg/kg/body weight) for up to 8 h, 36 C57BL/6 mice (20-25 g) were randomly divided into 4 groups (n=5). Compound 28 were administered orally twice daily at 20 mg/kg for 6 days. The matched vehicle controls (0.5% Methocel™, 0.1% Tween 80 in 100 mM citrate buffer, pH 3) were also administered twice daily for 6 days. On the 6th day, mice were induced pancreatitis after compound administration and after the last caerulein injection, mice were administered compound. The sham-treated group was performed with the same as vehicle controls except that saline was administered instead of caerulein. Mice were killed at 1 h after the last caerulein injection. Tissue was harvested immediately after sacrificing the animals. A portion of pancreas samples were frozen in liquid nitrogen for preparation of homogenate. For histology, pancreas was fixed in 4.5% formalin for paraffin embedding and stained with hematoxylin and eosin. Serum samples were prepared and stored at −20 C. […] Compound 28 were administered orally twice daily at 20 mg/kg. The activity inhibition data of the compound-treated groups are shown as the percentage activity of a sham mean (set to 100% activity). Values are means±SEM. […]

[2] = test system: Pr3; assay: In vivo study, Pr3 activity in mice bone marrow and blood lysates; conditions: dose dependent
Experimental: (§1) C57BL/6 mice (20-25 g) were randomly divided into 4 groups (n=10) and kept at 5 animals per cage. Compound 31 was administered orally twice daily at 6.7, 20, 60 mg kg-1 day-1 for 6 days. The matched vehicle controls (0.5% Methocel™, 0.1% Tween 80 in 100 mM citrate buffer, pH 3) were also administered twice daily for 6 days. Mice were weighed and the dose adjusted accordingly on each day. Sprague Dawley (280-300 g) were conducted by intraperitoneal injection twice daily at 1, 5, 20 mg kg-1 day-1 for 8 days. Blood was sampled through eye puncture at 14 h intervals after the end of the administration. Then mice were terminated and bone marrow cells were immediately extracted from femurs and tibias using ice cold RPMI 1640 medium. Blood cells and bone marrow cells were lysed according to the protocols previously described 8 with some modifications. […]
(§2) The analysis was performed as previously described. […] Synthetic peptide substrates (Gly-Phe-AFC(SMBiochemicals) for CatC, methoxysuccinyl-Ala-Ala-Pro-Val-AMC (Sigma) for NE, minobenzoyl-Val-Ala-Asp-Cys-Ala-Asp-Gin-ethylenediamine 2,4-dinitrophenyl (Peptide Synthetics) for Pr3, and N-succinyl-Ala-Ala-Pro-Phe-ONA (Sigma) for CatG) were added before plates were read at fluorescence or absorbance. Assay kinetics was monitored for up to 90 min. Data were analyzed using GraphPad Prism (GraphPad Software, Inc., San Diego, Calif., USA).

[3] = biological target: rhCatC (Cathepsin C) (Homo sapiens, UniProt P53634); assay: In Vitro CatC Enzyme Assay; assay type: biochemical; conditions: read-out: Cat C Enzy (Cathepsin C inhibitory activity, IC50)
Sequence of rhCatC (Cathepsin C) (P53634 25-134 limits assumed): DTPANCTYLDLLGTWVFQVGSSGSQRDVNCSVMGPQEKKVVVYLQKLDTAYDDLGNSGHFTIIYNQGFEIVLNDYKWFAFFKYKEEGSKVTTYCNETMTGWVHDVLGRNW
Sequence of rhCatC (Cathepsin C) (P53634 231-394 limits assumed): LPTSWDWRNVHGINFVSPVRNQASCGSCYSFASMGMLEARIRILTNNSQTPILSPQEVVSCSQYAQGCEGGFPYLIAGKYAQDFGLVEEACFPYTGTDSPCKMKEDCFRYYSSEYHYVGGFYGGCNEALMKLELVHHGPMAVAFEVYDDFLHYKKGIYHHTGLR
Sequence of rhCatC (Cathepsin C) (P53634 395-463 limits assumed): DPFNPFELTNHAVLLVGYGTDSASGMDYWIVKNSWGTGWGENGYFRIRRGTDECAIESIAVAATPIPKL
Experimental: In Vitro CatC Enzyme Assay
The CatC enzyme assay was performed in black 384-well plate. Firstly, rhCatC (440 nM) was activated by rhCatL (300 nM) in activation buffer (25 mM MES, 5 mM DTT, pH 6.0) at room temperature for 2 h and then activated rhCatC was diluted to 4.4 nM in assay buffer (25 mM MES, 50 mM NaCl, 5 mM DTT, 0.01% (v/v) Triton X100, pH 6.0), 14 μL activated rhCatC and 1 μL compound in 10% DMSO or 10% DMSO were incubated at room temperature for 3 h, and 5 μL substrate (Gly-Phe-AFC) was added to final concentration of 100 μM. After 60 min reaction, the product of the reaction was measured in the Enspire plate reader using Ex λ400 nm and Em λ505 nm for AFC. A standard irreversible CatC inhibitor 10 by AstraZeneca (J. Med. Chem. 2014, 57, 2357-2367) was used as an inhibitor control in the assay.

[4] = biological target: T1, CatC (Mus musculus, UniProt P97821); assay: In vivo study, CatC activity in mice bone marrow and blood lysates; conditions: dose dependent
T1 construct: Blood cells and bone marrow cells were lysed; from tissue; host or cells: C57BL/6 mouse bone marrow and blood cell lysates
T1 sequence (P97821 25-134 limits assumed): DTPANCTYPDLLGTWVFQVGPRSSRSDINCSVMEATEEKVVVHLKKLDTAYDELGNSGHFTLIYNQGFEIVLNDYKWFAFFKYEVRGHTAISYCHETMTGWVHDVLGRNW
T1 sequence (P97821 231-393 limits assumed): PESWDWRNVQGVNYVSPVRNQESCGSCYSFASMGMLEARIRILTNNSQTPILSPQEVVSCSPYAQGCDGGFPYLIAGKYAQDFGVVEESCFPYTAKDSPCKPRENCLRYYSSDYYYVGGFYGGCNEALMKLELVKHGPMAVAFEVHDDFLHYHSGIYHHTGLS
T1 sequence (P97821 394-462 limits assumed): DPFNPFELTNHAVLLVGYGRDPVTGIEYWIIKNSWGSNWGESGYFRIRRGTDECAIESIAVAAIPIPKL
Experimental: as §1, §2

[5] = test system: CatG; assay: In vivo study, CatG activity in rat bone marrow lysates; conditions: dose dependent
Experimental: as §1, §2

[6] = test system: NE; assay: In vivo study, NE activity in mice bone marrow and blood lysates; conditions: dose dependent
Experimental: as §1, §2

[7] = test system: CatG; assay: In vivo study, CatG activity in mice bone marrow and blood lysates; conditions: dose dependent
Experimental: as §1, §2

[8] = biological target: T2, CatC (Rattus norvegicus, UniProt P80067); assay: In vivo study, CatC activity in rat bone marrow lysates; conditions: dose dependent
T2 construct: bone marrow cells were immediately extracted from femurs and tibias; from tissue; host or cells: Sprague Dawley rat bone marrow cell lysate
T2 sequence (P80067 25-134 limits assumed): as the sequence (P97821 25-134 limits assumed) above, with S23H, S24P, D27H, A35P, V42I, L54V, H59Y, R86K, H88S, T89R counted along it
T2 sequence (P80067 230-393 limits assumed): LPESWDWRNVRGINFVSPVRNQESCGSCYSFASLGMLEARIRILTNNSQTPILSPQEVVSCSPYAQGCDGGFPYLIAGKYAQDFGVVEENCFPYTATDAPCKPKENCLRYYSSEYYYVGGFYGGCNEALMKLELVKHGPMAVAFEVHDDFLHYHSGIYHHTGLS
T2 sequence (P80067 394-462 limits assumed): as the sequence (P97821 394-462 limits assumed) above, with R20K, I26L, E27D, I31V, N38Q, V61M counted along it
Experimental: as §1, §2

[9] = test system: NE; assay: In vivo study, NE activity in rat bone marrow lysates; conditions: dose dependent
Experimental: as §1, §2

C=CC(=O)Nc1cc(Oc2nc(Nc3ccc(N4CCN(C)CC4)cc3OC)ccc2N2CCCCC2)ccc1C [Compound 28, N-(5-((6-((2-methoxy-4-(4-methylpiperazin-1-yl)phenyl)amino)-3-(piperidin-1-yl)pyridin-2-yl)oxy)-2-methylphenyl)acrylamide]
severity of acute pancreatitis [1]: reduced the severity of acute pancreatitis | activation of Pr3 ([2]; mice blood): inhibited the activation | activation of Pr3 ([2]; mice bone marrow): inhibited the activation | pIC50 [3]: 6.52 to 8.52 | activation of CatC ([4]; mice blood): inhibited the activation | activation of CatC ([4]; mice bone marrow): inhibited the activation | activation of CatG [5]: inhibited the activation | activation of NE ([6]; mice blood): inhibited the activation | activation of NE ([6]; mice bone marrow): inhibited the activation | activation of CatG ([7]; mice blood): inhibited the activation | activation of CatG ([7]; mice bone marrow): inhibited the activation | activation of CatC [8]: inhibited the activation | activation of NE [9]: inhibited the activation
